{"source": "patent US7829529B2", "about": "“Use of factor VIIa or a tissue factor antagonist for regulating gene expression and cell migration or chemotaxis” (Novo Nordisk Health Care A/G, priority 1999, dated 2010)", "key": {"[1]": {"system": "Cyr61 mRNA in WI-38 cells", "test": "Northern blot analysis of Cyr61 expression", "format": "cell-based, human", "settings": "for effect on VIIa-induced expression of Cyr61: 30 min preincubation, then VIIa 5 μg/ml 45 min, TAP 200 nM, actinomycin D and cycloheximide 10 μg/ml", "method": "Northern Blot Analysis. Total RNA was prepared using TRIZOL reagent from quiescent monolayer of WI-38 cells that were exposed to VIIa and other materials as described in Results. Northern blot analysis was carried out using standard procedure. Briefly, 10 μg of total RNA was size fractionated by gel electrophoresis in 1% agarose/6% formaldehyde gels and transferred onto the nitrocellulose membrane by a capillary blot method. Northern blots were prehybridized at 42° C. with a solution containing 50% formamide, 5×SSC, 50 mM Tris.HCl, pH 7.5, 0.1% sodium pyrophosphate, 1% SDS, 1% polyvinylpyrrolidone, 1% Ficoll, 25 mM EDTA, 100 μg/ml denatured salmon sperm DNA and 1% BSA and hybridized with ^32P-labeled Cyr61 cDNA probe (106 cpm/ml). The hybridized membranes were exposed to either Dupont NEF or Fuji RX X-ray film. For quantification purposes, the membranes were exposed to phosphor screen for 1 to 4 h, and the exposed screens were analyzed in a Phosphorlmger (Molecular Dynamics) using “Image-quant” software. To obtain mean values, the units (counts) obtained from different experiments were normalized to an internal control (counts present in control-treated sample).\nConfirmation of differential expression of Cyr61. To validate the data obtained in microarray, we have patiented the RNA samples from the control and VIIa-treated cells (the same RNA samples that have been used to prepare poly (A) RNA for probe generation in the microarray) to Northern blot analysis and probed with radiolabeled Cyr61 cDNA. […] However, the intensity of hybridization signal was much higher in RNA isolated from VIIa-treated cells (FIG. 11).\nKinetics of Vila-induced expression of Cyr61. To determine the kinetics of Cyr61 expression, quiescent fibroblasts were treated for varying time periods with 5 μg/ml VIIa. Total RNA was extracted and patiented to Northern blot analysis. […] The expression was peaked at about 45 min and thereafter declined to the base level in 2 to 3 h. Since it had been reported that expression of Cyr61 in mouse fibroblasts after stimulation with serum and growth factor was sustained for several hours (up to 8 to 10 h) before repression occurs, we have examined the effect of serum and PDGF on kinetics of Cyr61 expression in quiescent human fibroblasts, WI-38. […] Similar results obtained with serum-induced expression of Cyr61 (data not shown).\nFactor VIIa-dose dependent induced expression of Cyr61. To determine dose-dependency of VIIa, quiescent fibroblasts were treated with varying doses FVIIa (0.1 to 5 μg/ml) for 45 min and then total RNA samples from the cells were patiented to Northern blot analysis.\nFactor VIIa-catalytic activity is required for Cyr61 induction. To test whether VIIa catalytic activity is required for the induction of Cyr61, WI-38 cells were treated with VIIa and active-site inactivated FVIIa (FVIIai) for 45 min and the expression of Cyr61 was evaluated by Northern blot analysis. […] It is unlikely that VIIa-induced expression of Cyr61 in our experiments was the result of generation of down-stream coagulation factors, FXa and thrombin.\nInvolvement of transcriptional mechanism for the induction of Cyr61 mMRNA steady-state levels by VIIa. To investigate whether transcription is involved in VIIa-mediated increase in Cyr61 mRNA steady-state levels, quiescent WI-38 cells were incubated with actinomycin-D (10 μg/ml) for 30 min before the addition of VIIa for 45 min. […] This finding indicates a transcriptional mechanism for induction of Cyr61.\nTo investigate whether de novo protein synthesis is required for the induction of Cyr61 nRNA by VIIa, WI-38 cells were pretreated with the protein synthesis inhibitor cycloheximide before the cells were exposed to VIIa for 45 min."}, "[2]": {"system": "Human foreskin fibroblasts AG1523", "test": "Chemotaxis assay, leading front technique in modified Boyden chamber, towards PDGF-BB", "format": "cell-based", "settings": "for effect on enhanced migration response (hyperchemotaxis) transduced by FVIIa/TF: TAP 0.2-10 μM, Hirudin 5 U/ml; for effect on migration of fibroblasts in response to PDGF without FVIIa: no FVIIa present; for effect on FVIIa/TF-mediated chemotactic response to PDGF-BB: 30 min pretreatment", "method": "Fibroblasts expressing active TF (FIG. 1A and FIG. 1B) were incubated with 100 nM of FVIIa and seeded in the upper part of the modified Boyden chamber; while media containing 10% FBS and PDGF-BB at different concentrations were added below the 150 μm micropore filter. The migration of the cells under conditions where medium containing 10% FBS without PDGF-BB was added below the filter was used as a measure of random migration, and calculated as 100% migration. A significant migration response was recorded at a concentration of 0.01 ng/ml PDGF-BB in cells stimulated by FVIIa compared to 1 ng/ml PDGF-BB for cells not ligated with FVIIa, i.e. a 100-fold difference in concentration (FIG. 2). At 0.01-0.1 ng/ml PDGF-BB the migration response to FVIIa increased dose dependently, starting at 25 nM and with a maximal effect at 50-100 nM FVIIa (FIG. 3A-D). […] To test whether the proteolytically active FVIIa was mandatory for the hyperchemotactic response to PDGF-BB, fibroblasts were also incubated with 100 nM FFR-FVIIa and assayed in the Boyden chamber in the same way (FIG. 2).\nAn irrelevant monoclonal IgG antibody did neither prevent hyperchemotaxis induced by FVIIa nor the inhibition of the migration response induced by FFR-FVIIa (data not shown).\nChemotaxis assay. The migration response of fibroblasts was assayed by means of the leading front technique in a modified Boyden chamber, as previously described (Siegbahn, A., Hanimacher, A., Westermark, B., Heldin, C-H. Differential effects of the various isoforms of platelet-derived growth factor on chemotaxis of fibroblasts, monocytes, and granulocytes. J. Clin. Invest. 85, 916-920 (1990) and Nistér, M., Hammacher, A., Mellström, K., Siegbahn, A., Rönnstrand, L., Westermark, B., Heldin, C-H. A glioma-derived PDGF A chain homodimer has different functional activities from a PDGF AB heterodimer purified from human platelets. Cell 52, 791-799 (1988)). Micropore filters (pore size 8 μm) were coated with a solution of type-1 collagen at room temperature over night. The filters were air dried for 30 minutes immediately before use. Human foreskin fibroblasts AG1523, were grown to confluence in Eagle's MEM supplemented with 10% FBS. The cells were detached by trypsinization (2.5 mg/ml for 10 minutes at 37° C.) and suspended in Eagle's MEM with 10% FBS. The fibroblasts were incubated for 10 minutes with or without FVIIa or FFR-FVIIa before assay. One hundred microliters of the cell suspension (2×10^5 cells/ml) was added above the filter of the Boyden chamber. PDGF-BB was diluted in assay media (Eagle's MEM with 10% FBS) and added below the filter in the chamber. The cells were incubated for 6 hours at 37° C. in a humidified chamber containing 95% air/5% CO2. FVIIa or FFR-FVIIa were present during the entire experiment. The filters were then removed, fixed in ethanol, stained with Mayer's Hemalun, and mounted. Migration was measured as the distance of the two furthest migrating fibroblast nuclei of one high-power field (12.5×24) in focus. The migration distance in each filter was calculated as the mean of the readings of at least three different parts of the filter. Experiments were performed with two to four separate filters for each concentration of chemoattractant. For each set of experiments, the migration of fibroblasts toward the assay media served as control.\nIn cases when anti-TF monoclonal antibodies or inhibitors to coagulation factors, TAP and Hirudin, were used, cells were preincubated for 10 minutes with these agents, then with or without FVIIa or FFR-FVIIa before the chemotaxis assay was performed. Antibodies, TAP or Hirudin were also present during the entire chemotaxis experiment. In experiments where the effects on the migration response of different inhibitors, LY294002, U73122 or U73343, were tested, cells were preincubated for 30 minutes with the inhibitors at indicated concentrations, and the inhibitors were also present throughout the experiments."}, "[3]": {"system": "PLC-γ1 in AG1518 fibroblasts", "test": "Assay for agonist-induced PLC-γ1 tyrosine phosphorylation", "format": "cell-based, human", "settings": "100 nM FVIIa or FFR-FVIIa one hour; PDGF-BB 2, 10 or 100 ng/ml 5 minutes", "method": "In order to determine whether the PLC-γ1 isoform, which is activated by certain tyrosine kinase receptors, was responsible for the increased PLC activity induced by FVIIa/TF, tyrosine phosphorylation of PLC-γ1 was studied. Fibroblasts were incubated in the absence or presence of 100 nM FVIIa or FFR-FVIIa for one hour, followed by the stimulation with 0, 2, 10 or 100 ng/ml PDGF-BB. After 5 minutes of incubation, the cells were lysed and PLC-γ1 was immunoprecipitated, separated by SDS-PAGE and immunoblotted with antiphosphotyrosine antibodies. […] Thus, other PLC isoforms than PLC-γ1 are responsible for the increased PLC activity after FVIIa stimulation.\nAssay for agonist-induced PLC-γ1 phosphorylation. Semi-confluent cultures of AG1518 were serum starved overnight (approx. 20 hours) in medium containing 0.1% FBS, and then incubated in the absence or presence of 100 nM FVIIa or FFR-FVIIa for one hour followed by incubation with 0, 2, 10 or 100 ng/ml PDGF-BB for 5 minutes at 37° C. […]"}, "[4]": {"settings": "100 nM FVIIa, 0.1 ng/ml PDGF-BB"}}, "note": "Entries after “also recorded” stand apart in the source; their conditions may differ. Starred links: 1 amine or outer side, 2 acyl side, 3 side chain; linkers in the order of their positions; H or OH if unused. Positions of bridges follow the written chain, without caps; N, C: chain ends. Non-standard residues stand in square brackets, D forms with d. Residues, ends and D or L forms follow the SMILES beside them. Chains are numbered I, II in the order given. Actinocin(9to1) = Cc1c2oc3c(C)ccc(C(=O)[*:1])c3nc-2c(C(=O)[*:2])c(N)c1=O; NMeV = CN[C@H](C(=O)O)C(C)C; Sar = CNCC(=O)O"}
{"molecule": "thrombin", "values": [{"measurement": "induction of Cyr61 expression (data not shown)", "setting": "[1]; conditions not given", "value": "could also induce the expression of Cyr61"}]}
{"molecule": "Hirudin", "values": [{"measurement": "effect on VIIa-induced expression of Cyr61", "setting": "[1]", "value": "failed to abolish"}, {"measurement": "effect on enhanced migration response (hyperchemotaxis) transduced by FVIIa/TF", "setting": "[2]; 100 nM FVIIa", "value": "Neither addition of 5 U/ml Hirudin, a specific thrombin inhibitor, had any effect"}, {"measurement": "effect on migration of fibroblasts in response to PDGF without FVIIa", "setting": "[2]", "value": "did not influence"}]}
{"molecule": "COc1ccc2c(c1)CC[C@@H]1[C@@H]2CC[C@]2(C)[C@@H](NCCCCCCN3C(=O)C=CC3=O)CC[C@@H]12", "note": "[U73122]", "values": [{"measurement": "concentration giving total inhibition of the hyperchemotactic response", "setting": "[2]; [4]", "value": 1, "unit": "µM"}, {"measurement": "effect on FVIIa/TF-mediated chemotactic response to PDGF-BB", "setting": "[2]; [4]", "value": "inhibited the hyperchemotacic response to 0.1 ng/ml PDGF-BB in a dose-dependent way"}]}
{"molecule": "Cc1c2oc3c(C)ccc(C(=O)N[C@@H]4C(=O)N[C@H](C(C)C)C(=O)N5CCC[C@H]5C(=O)N(C)CC(=O)N(C)[C@@H](C(C)C)C(=O)O[C@@H]4C)c3nc-2c(C(=O)N[C@@H]2C(=O)N[C@H](C(C)C)C(=O)N3CCC[C@H]3C(=O)N(C)CC(=O)N(C)[C@@H](C(C)C)C(=O)O[C@@H]2C)c(N)c1=O", "note": "[actinomycin-D] (I: T[dV]P[Sar][NMeV] / II: T[dV]P[Sar][NMeV]; ester I:1-I:C, II:1-II:C; linker I:N-II:N via Actinocin(9to1))", "values": [{"measurement": "effect on VIIa-induced expression of Cyr61", "setting": "[1]", "value": "inhibited the stimulator effect of VIIa"}]}
{"molecule": "C[C@@H]1C[C@@H]([C@H](O)CC2CC(=O)NC(=O)C2)C(=O)[C@@H](C)C1", "note": "[cycloheximide]", "values": [{"measurement": "effect on VIIa-induced expression of Cyr61", "setting": "[1]", "value": "not blocked; also recorded: markedly increased the VIIa-induced Cyr61 mRNA steady-state levels"}]}
{"molecule": "TAP: Recombinant Tick anticoagulant peptide, specifically blocks the active site of FXa (YNRLCIKPRDWIDECDSNEGGERAYFRNGKGGCDSFWICPEDHTGADYYSSYRDCFNACI; UniProt P17726 1-60, looked up)", "values": [{"measurement": "effect on VIIa-induced expression of Cyr61", "setting": "[1]", "value": "failed to abolish"}, {"measurement": "effect on enhanced migration response (hyperchemotaxis) transduced by FVIIa/TF", "setting": "[2]; 100 nM FVIIa", "value": "not blocked"}, {"measurement": "effect on migration of fibroblasts in response to PDGF without FVIIa", "setting": "[2]", "value": "did not influence"}]}
{"molecule": "COc1ccc2c(c1)CC[C@@H]1[C@@H]2CC[C@]2(C)[C@@H](NCCCCCCN3C(=O)CCC3=O)CC[C@@H]12", "note": "[U73343]", "values": [{"measurement": "effect on FVIIa/TF-mediated chemotactic response to PDGF-BB", "setting": "[2]; [4]", "value": "No effect on chemotaxis"}]}
{"molecule": "PDGF-BB: platelet-derived growth factor BB, chemotactic factor for human fibroblasts (protein, UniProt P01127 82-190, looked up) Platelet-derived growth …: SLGSLTIAEPAMIAECKTRTEVFEISRRLIDRTNANFLVWPPCVEVQRCSGCCNNRNVQCRPTQVQLRPVQVRKIEIVRKKPIFKKATVTLEDHLACKCETVAAARPVT", "values": [{"measurement": "kinetics of Cyr61 expression upon stimulation", "setting": "[1]; PDGF-BB 10 ng/ml", "value": "expressed only transiently"}, {"measurement": "time to full repression of Cyr61 after addition of stimuli", "setting": "[1]; PDGF-BB 10 ng/ml", "value": 2, "unit": "h"}, {"measurement": "tyrosine phosphorylation of PLC-γ1, agent alone", "setting": "[3]", "value": "significant increase in tyrosine phosphorylation of PLC-γ1"}]}
